# Article PMC6300358, “Preacinetobactin not acinetobactin is essential for iron uptake by the BauA transporter of the pathogen Acinetobacter baumannii” (eLife, 2018)
# Target: T1, BauA (Acinetobacter baumannii, UniProt Q76HJ9)
# T1 construct: mature protein (signal peptide removed); residues 33 to 703 well defined in the apo structure
# Assay: ITC (Kd […] at Fe3+:siderophore […]; […] at […]) and […] Å crystal structure
# Assay type: binding
# T1 sequence (Q76HJ9 entry or part of it): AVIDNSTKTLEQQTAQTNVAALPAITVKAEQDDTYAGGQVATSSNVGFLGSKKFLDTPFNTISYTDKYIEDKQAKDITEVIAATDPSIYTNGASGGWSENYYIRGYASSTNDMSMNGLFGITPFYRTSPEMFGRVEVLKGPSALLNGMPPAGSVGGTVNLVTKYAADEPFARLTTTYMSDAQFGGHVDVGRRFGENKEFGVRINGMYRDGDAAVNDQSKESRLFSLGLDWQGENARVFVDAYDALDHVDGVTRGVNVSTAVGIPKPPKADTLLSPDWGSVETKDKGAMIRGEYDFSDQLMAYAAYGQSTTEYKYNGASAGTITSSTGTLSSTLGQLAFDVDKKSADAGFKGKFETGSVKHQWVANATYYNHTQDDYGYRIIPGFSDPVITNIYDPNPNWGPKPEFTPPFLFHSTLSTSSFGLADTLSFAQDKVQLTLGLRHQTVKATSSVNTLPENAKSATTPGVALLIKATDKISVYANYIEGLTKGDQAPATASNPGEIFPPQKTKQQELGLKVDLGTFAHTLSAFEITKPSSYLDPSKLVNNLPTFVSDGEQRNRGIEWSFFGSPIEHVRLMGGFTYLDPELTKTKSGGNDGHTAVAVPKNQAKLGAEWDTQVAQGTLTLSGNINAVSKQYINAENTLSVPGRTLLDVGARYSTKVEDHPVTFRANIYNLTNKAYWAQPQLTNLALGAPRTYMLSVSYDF
smiles,measurement,value
C[C@H]1OC(c2cccc(O)c2O)=N[C@@H]1C(=O)N(O)CCc1cnc[nH]1 [preacinetobactin],Kd,83 nM
